The results in this text go back to patent publication US9103790B2, “Linker for unimolecular FRET biosensor based on principle of fluorescence resonance energy transfer” (KYOTO UNIVERSITY, priority 2010, dated 2015).

Each structure is given as a SMILES string.

For assay [1], the system named is EGF dependent-activation of ERK. As to the kind of experiment: Drug sensitivity test: FRET measurement of ERK activity in cell line stably expressing Eevee-ERK (3560 NES). In kind it is cell-based, human. As to conditions: HeLa cells stably expressing Eevee-ERK (3560 NES); serial-diluted inhibitors; 25 ng/mL EGF; after 30 min; average of 30 or more cells. As to the method: FIG. 18A illustrates results when HeLa cells stably expressing Eevee-ERK were seeded onto a 96-well plate, were added thereto serial-diluted inhibitors and stimulated with 25 ng/mL EGF. ERK activities were automatically measured for 30 or more cells, averaged, and plotted. FIG. 18A illustrates results of DMSO controls.
A mammalian cell expression plasmid containing the gene of Eevee-ERK (3560 NES) described in Example 3 was inserted into a plasmid having a transposon recognition sequence. This plasmid and a transposon expression vector was co-transfected as previously reported and screened for biosensor-expressing cell lines by blasticidin [Yusa, K., R. Rad, J. Takeda, and A. Bradley. 2009. Generation of transgene-free induced pluripotent mouse stem cells by the piggyBac transposon. Nat. Methods 6 (5)363-369].
Cultured cell lines were seeded onto a 96-well culture plate. Serial-diluted inhibitors were added thereto. The cell lines were stimulated with 25 ng/mL EGF. After 30 min, ERK activities were measured as described in Example 3 (see FIGS. 18A to 18H). The average ERK activities of 30 or more cells were plotted. The following inhibitors were used: EGF receptor inhibitors (AG1478), MEK inhibitors (PD15035, PD184351), BRAF inhibitors (PLX4720), phosphatidylinositol 3-phosphate kinase inhibitors (LY294002), RSK inhibitors (BI-D1870) and JNK inhibitors (JNK inhibitor VIII).

In assay [2] the test system is PKA. The experiment in a line: Drug sensitivity test with transgenic mouse expressing Eevee-PKA (3536 NES), two-photon FRET imaging of small intestine. To be noted: intravenous injection; intermuscular nerve cell, intestinal smooth muscle, vascular smooth muscle. The class given is in vivo. From the text:
FIG. 19 illustrates results when the transgenic mouse expressing Eevee-PKA (3536 NES) was intravenously injected with theophylline, which is a phosphodiesterase inhibitor, and actosin, which is a cyclic adenosine triphosphate analog, and measured for PKA activities.
The transgenic mouse expressing Eevee-PKA (3536 NES) generated in Example 10 was anesthetized with isoflurane. A small intestine of the mouse was time-lapse imaged by an inverted two-photon microscope IX81/FV1000 (product of Olympus Corporation). Cells were excited at 840 nm with a titanium-sapphire laser system (Mai Tai Deep See HP; product of Spectra-Physics, Inc.). CFP fluorescence and YFP fluorescence were acquired using BA 460-500 fluorescence filter (product of Olympus Corporation) and BA 520-560 fluorescence filter (product of Olympus Corporation), respectively. FRET images were obtained in the same manner as in Example 3.
The transgenic mouse was intravenously injected with theophylline, which is a phosphodiesterase inhibitor, and actosin, which is a cyclic adenosine triphosphate analog, and measured for PKA activities.

As for `COc1cc2ncnc(Nc3cccc(Br)c3)c2cc1OC` [PD153035], the “inhibition of EGF dependent-activation of ERK” value in assay [1] was “effectively inhibited”.
As to `Cn1c(=O)c2[nH]cnc2n(C)c1=O` [theophylline], in assay [2], the “PKA activities (FRET)” value is given as “Changes in PKA activities”.
Regarding `COc1cc2ncnc(Nc3cccc(Cl)c3)c2cc1OC` [AG1478], the “inhibition of EGF dependent-activation of ERK” value in assay [1] was “effectively inhibited”.
Still for that read-out and setting: for `O=C(NOCC1CC1)c1ccc(F)c(F)c1Nc1ccc(I)cc1Cl` [PD184352] the value was “effectively inhibited”.
With `CCCC(=O)Nc1ncnc2c1ncn2[C@@H]1O[C@@H]2COP(=O)([O-])O[C@H]2[C@H]1OC(=O)CCC.[Na+]` [actosin], the “PKA activities (FRET)” value in assay [2] is listed as “Changes in PKA activities”.
